Reference: the supplement of paper PMC10307832

Columns and labels:
Test in all cases: relative viability (nuclei count vs DMSO), 5 days (fraction); higher = more cells survive
[1] = compound: C=C(c1ccc(C(=O)O)cc1)c1cc2c(cc1C)C(C)(C)CCC2(C)C [Bexarotene] + C[C@]1(O)C[C@@H](c2nc(-c3ccc4ccc(-c5ccccc5)nc4c3)c3c(N)nccn32)C1 [Linsitinib] (partner 1 µM)
Procedure, shortened: (§1)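 Lung cancer cell lines were pin-tool dosed in 1536-well plates on the day after seeding, with either a lone drug or a fixed anchor-drug dose plus five library-drug doses (not always all listed) in √10 steps. Nuclei were counted on 4× images after 5 days. Relative viability is the ratio of treated-well to vehicle-well nuclei counts, with each value a median of duplicate plates.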

[2] = compound: C=C(c1ccc(C(=O)O)cc1)c1cc2c(cc1C)C(C)(C)CCC2(C)C [Bexarotene] + CC1(C)CCC(c2ccc(Cl)cc2)=C(CN2CCN(c3ccc(C(=O)NS(=O)(=O)c4ccc(N[C@H](CCN5CCOCC5)CSc5ccccc5)c(S(=O)(=O)C(F)(F)F)c4)cc3)CC2)C1 [Navitoclax] (partner 0.5 µM)
Procedure, shortened: as §1

[3] = compound: C=C(c1ccc(C(=O)O)cc1)c1cc2c(cc1C)C(C)(C)CCC2(C)C [Bexarotene] + O=C(CCCCCCC(=O)Nc1ccccc1)NO [Vorinostat] (partner 1 µM)
Procedure, shortened: as §1

[4] = compound: C=C(c1ccc(C(=O)O)cc1)c1cc2c(cc1C)C(C)(C)CCC2(C)C [Bexarotene] + Cc1nc(NC(=O)N2CCC[C@H]2C(N)=O)sc1-c1ccnc(C(C)(C)C(F)(F)F)c1 [Alpelisib] (partner 2 µM)
Procedure, shortened: as §1

Cell Line	relative viability ([1]; first compound 0.08 µM)	relative viability ([1]; first compound 0.253 µM)	relative viability ([1]; first compound 0.8 µM)	relative viability ([1]; first compound 2.53 µM)	relative viability ([1]; first compound 8 µM)	relative viability ([2]; first compound 0.08 µM)	relative viability ([2]; first compound 0.253 µM)	relative viability ([2]; first compound 0.8 µM)	relative viability ([2]; first compound 2.53 µM)	relative viability ([2]; first compound 8 µM)	relative viability ([3]; first compound 0.08 µM)	relative viability ([3]; first compound 0.253 µM)	relative viability ([3]; first compound 0.8 µM)	relative viability ([3]; first compound 2.53 µM)	relative viability ([3]; first compound 8 µM)	relative viability ([4]; first compound 0.08 µM)	relative viability ([4]; first compound 0.253 µM)	relative viability ([4]; first compound 0.8 µM)	relative viability ([4]; first compound 2.53 µM)	relative viability ([4]; first compound 8 µM)
LU99A	0.616	0.504	0.477	0.518	0.653	0.931	0.828	0.826	0.895	0.89	0.597	0.539	0.551	0.527	0.612	0.592	0.57	0.535	0.475	0.61
NCI-H647	1.29	1.41	1.22	1.26	0.914	1.32	1.35	1.2	1.15	1.1	0.544	0.917	0.826	0.978	0.538	1.06	1.15	1.13	1.1	0.843
A-427	1.03	0.833	1.04	1.05	0.993	0.959	0.877	0.882	0.933	0.816	0.861	0.81	0.83	0.746	0.903	1.08	1.02	0.89	0.89	0.926
COR-L 105	0.942	1.29	1.19	1.25	0.747	0.715	0.856	0.882	0.983	0.617	0.844	0.896	0.855	0.874	0.927	0.928	0.977	1.04	1.14	0.916
NCI-H441	0.587	0.583	0.578	0.616	0.556	0.845	0.747	1.02	–	0.541	0.679	0.805	0.628	0.716	0.547	1.09	1.06	0.727	–	0.841
NCI-H2126	0.8	0.762	0.789	0.791	0.753	0.925	0.916	0.844	0.958	0.872	0.882	0.902	0.703	0.762	0.751	0.8	0.81	0.698	0.826	0.847
HCC-44	0.683	0.727	0.56	0.683	0.615	0.987	1.06	0.969	1.05	0.871	1.09	1.05	0.971	1.04	1.16	0.894	0.855	0.741	0.735	0.722
NCI-H460	0.94	0.865	0.757	0.66	0.744	1.31	1.18	1.05	0.993	0.918	0.812	0.752	0.644	0.716	0.67	0.654	0.733	0.539	0.596	0.519
SK-LU-1	1.22	1.12	–	0.93	1.23	1.1	0.845	–	0.645	1.09	0.924	0.866	–	0.734	0.672	1.11	1.06	–	0.97	0.988
NCI-H322M	1.08	0.947	0.846	0.92	0.891	1.19	1.33	1.17	1.19	1.26	0.978	0.983	0.945	0.757	0.934	0.846	0.881	0.809	0.771	0.874
EKVX	0.971	1.04	0.922	0.996	0.937	0.906	0.94	0.908	0.878	0.966	0.69	0.811	0.709	0.819	0.542	0.889	0.855	0.781	0.849	0.76
NCI-H1734	0.906	0.857	0.81	0.794	0.806	0.804	0.877	0.795	0.781	0.815	0.779	0.834	0.808	0.65	0.657	0.718	0.708	0.652	0.637	0.633
NCI-H520	1.02	0.951	0.79	0.976	0.88	1.14	1.11	1.03	1.14	0.993	0.781	0.695	0.778	0.775	0.716	0.99	0.775	0.708	0.826	0.803
EPLC-272H	1.31	1.07	0.846	1.25	1.25	1.16	1.09	1.01	0.974	0.96	0.398	0.671	0.492	0.681	0.484	0.9	0.97	0.884	0.901	0.911
UMC-11	1.08	1.01	1.04	0.978	0.998	0.347	0.268	0.306	0.305	0.284	0.357	0.379	0.408	0.377	0.346	0.971	1.02	0.954	1.04	0.955
NCI-H1993	0.718	0.665	0.608	0.656	0.774	1.11	1.03	0.878	0.924	0.841	0.851	0.691	0.783	0.716	0.672	0.657	0.645	0.689	0.735	0.684
